Assay results published in the supplement of paper PMC10307832.

Tests used:
Test in all cases: relative viability (nuclei count vs DMSO), 5 days (fraction); higher = more cells survive
[1] = compound: O=C(O)c1ccc2c(c1)nc(Nc1cccc(Cl)c1)c1ccncc12 [Silmitasertib] + CS(=O)(=O)N1CCN(Cc2cc3nc(-c4cccc5[nH]ncc45)nc(N4CCOCC4)c3s2)CC1 [Pictilisib] (partner 1 µM)
Summary of the method: (§1)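 Cells from lung cancer lines were seeded into 1536-well plates and, one day later, dosed by pin tool. Treatments were either a single drug or a fixed dose of an anchor drug with five library-drug doses (not always all listed) in √10 steps. After 5 days, nuclei were stained in a one-step fixation (final 0.05% Triton X-100, 1% formaldehyde, 1 ug/ml Hoechst) and counted on 4× images, and relative viability is the treated-to-vehicle nuclei ratio, as the median of duplicate plates.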

[2] = compound: O=C(O)c1ccc2c(c1)nc(Nc1cccc(Cl)c1)c1ccncc12 [Silmitasertib] + Cc1cc(Nc2cc(N3CCN(C)CC3)nc(Sc3ccc(NC(=O)C4CC4)cc3)n2)n[nH]1 [Tozasertib] (partner 0.1 µM)
Summary of the method: as §1

[3] = compound: O=C(O)c1ccc2c(c1)nc(Nc1cccc(Cl)c1)c1ccncc12 [Silmitasertib] + Cc1nc(NC(=O)N2CCC[C@H]2C(N)=O)sc1-c1ccnc(C(C)(C)C(F)(F)F)c1 [Alpelisib] (partner 2 µM)
Summary of the method: as §1

[4] = compound: O=C(O)c1ccc2c(c1)nc(Nc1cccc(Cl)c1)c1ccncc12 [Silmitasertib] + N=C(N)NC(=N)NCCc1ccccc1 [Phenformin] (partner 250 µM)
Summary of the method: as §1

[5] = compound: O=C(O)c1ccc2c(c1)nc(Nc1cccc(Cl)c1)c1ccncc12 [Silmitasertib] + O=C(CCCCCCC(=O)Nc1ccccc1)NO [Vorinostat] (partner 1 µM)
Summary of the method: as §1

Row | Cell Line | relative viability ([1]; first compound 0.04 µM) | relative viability ([1]; first compound 0.4 µM) | relative viability ([1]; first compound 1.265 µM) | relative viability ([1]; first compound 4 µM) | relative viability ([2]; first compound 0.04 µM) | relative viability ([2]; first compound 0.4 µM) | relative viability ([2]; first compound 1.265 µM) | relative viability ([2]; first compound 4 µM) | relative viability ([3]; first compound 0.04 µM) | relative viability ([3]; first compound 0.4 µM) | relative viability ([3]; first compound 1.265 µM) | relative viability ([3]; first compound 4 µM) | relative viability ([4]; first compound 0.04 µM) | relative viability ([4]; first compound 0.4 µM) | relative viability ([4]; first compound 1.265 µM) | relative viability ([4]; first compound 4 µM) | relative viability ([5]; first compound 0.04 µM) | relative viability ([5]; first compound 0.4 µM) | relative viability ([5]; first compound 1.265 µM) | relative viability ([5]; first compound 4 µM)
1 | NCI-H460 | 0.424 | 0.412 | 0.314 | 0.3 | 0.556 | 0.119 | 0.405 | 0.523 | 0.488 | 0.512 | 0.466 | 0.421 | 0.523 | 0.525 | 0.583 | 0.414 | 0.722 | 0.747 | 0.668 | 0.842
2 | NCI-H520 | 0.263 | 0.298 | 0.258 | 0.224 | 0.443 | 0.429 | 0.42 | 0.394 | 0.932 | 1.01 | 1.16 | 0.832 | 0.677 | 0.492 | 0.605 | 0.429 | 0.773 | 0.907 | 0.912 | 0.802
3 | NCI-H596 | 0.393 | 0.384 | 0.36 | 0.336 | 0.967 | 0.735 | 0.624 | 0.799 | 0.47 | 0.429 | 0.382 | 0.444 | 0.655 | 0.632 | 0.735 | 0.573 | 0.768 | 0.616 | 0.611 | 0.375
4 | NCI-H647 | 0.546 | 0.462 | 0.33 | 0.153 | 0.324 | 0.211 | 0.196 | 0.175 | 1.37 | 1.09 | 0.688 | 0.465 | 0.513 | 0.303 | 0.477 | 0.189 | 0.868 | 0.666 | 0.672 | 0.704
5 | NCI-H650 | 1.08 | 0.817 | 0.614 | 0.75 | 0.874 | 0.492 | 0.496 | 0.355 | 1.16 | 0.648 | 1.09 | 0.99 | 0.542 | 0.339 | 0.377 | 0.235 | 0.626 | 0.281 | 0.475 | 0.244
6 | NCI-H661 | 0.461 | 0.298 | 0.243 | 0.271 | 0.346 | 0.368 | 0.334 | 0.364 | 0.784 |  | 0.547 | 0.338 | 0.287 | 0.339 | 0.283 | 0.276 | 0.812 | 0.847 | 0.737 | 0.631
7 | NCI-H727 | 0.608 | 0.392 | 0.381 | 0.32 | 0.584 | 0.62 | 0.681 | 0.609 | 0.611 | 0.506 | 0.493 | 0.297 | 0.692 | 0.488 | 0.511 | 0.348 | 1.36 | 0.822 | 0.83 | 1.16
8 | NCI-H838 | 0.463 |  | 0.434 | 0.359 | 0.289 |  | 0.257 | 0.222 | 1.05 |  | 0.967 | 0.556 | 0.708 |  | 0.513 | 0.362 | 0.787 | 0.837 | 0.807 | 0.848
9 | NCI-H1355 | 0.419 |  | 0.367 | 0.293 | 0.545 |  | 0.528 | 0.46 | 0.911 |  | 0.721 | 0.766 | 0.457 |  | 0.46 | 0.43 | 0.664 |  | 0.622 | 0.499
10 | NCI-H1395 | 0.623 | 0.492 | 0.587 | 0.427 | 0.742 | 0.559 | 0.68 | 0.623 | 1.15 | 0.728 | 1.03 | 0.965 | 0.495 | 0.436 | 0.49 | 0.373 | 0.93 | 0.616 | 0.662 | 0.538
11 | NCI-H1437 | 0.42 |  | 0.261 | 0.217 | 0.397 | 0.406 | 0.3 | 0.241 | 0.976 |  | 0.741 | 0.498 | 0.327 | 0.334 | 0.305 | 0.278 | 0.844 | 0.787 | 0.701 | 0.43
12 | NCI-H1651 | 0.615 | 0.657 | 0.669 | 0.543 | 0.785 | 0.556 | 0.541 | 0.443 | 0.951 | 1.03 | 0.952 | 0.86 | 0.339 | 0.321 | 0.378 | 0.363 | 0.572 | 0.456 | 0.335 | 0.594
13 | NCI-H1666 | 0.465 | 0.499 | 0.321 | 0.307 | 0.734 | 0.626 | 0.543 | 0.446 | 1.03 | 0.781 | 0.61 | 0.505 | 0.571 | 0.582 | 0.607 | 0.511 | 1.06 | 0.845 | 0.855 | 0.689
14 | NCI-H1734 | 0.514 |  | 0.424 | 0.313 | 0.275 | 0.261 | 0.274 | 0.243 | 0.688 |  | 0.649 | 0.66 | 0.499 | 0.358 | 0.42 | 0.357 | 0.849 | 0.705 | 0.874 | 0.582
15 | NCI-H1755 | 0.431 | 0.441 | 0.441 | 0.375 | 0.572 | 0.519 | 0.623 | 0.714 | 0.981 | 0.912 | 0.908 | 0.987 | 0.643 | 0.601 | 0.637 | 0.586 | 0.756 | 0.633 | 0.526 | 0.72
16 | NCI-H1793 | 0.374 | 0.247 | 0.274 | 0.31 | 0.392 | 0.297 | 0.2 | 0.331 | 0.694 | 0.619 | 0.656 | 0.564 | 0.396 | 0.29 | 0.346 | 0.373 | 0.989 | 0.619 | 0.718 | 0.213
17 | NCI-H1915 | 1.02 |  | 0.956 | 0.408 | 0.487 |  | 0.38 | 0.283 | 1.05 |  | 1.14 | 0.885 | 0.362 |  | 0.37 | 0.249 | 0.54 |  | 0.519 | 0.413
